Reference: US8859587B2, “(2E)-3-phenyl-N-[2,2,2-Trifluoro-1-[[8-quinolineamino)thiomethyl]amino]ethyl]-2-acrylamide and pharmaceutical uses thereof” (Chinese PLA General Hospital, priority 2010, dated 2014)

Columns and labels:
[1] = test system: cardiac muscle cells under anoxia; assay: Cardiomyocyte apoptosis induced by anoxia, high connotation screening (HCS Reader); type: cell-based, Wistar rats; conditions: for Filament strength (actin filament) / Nucleus area / Nucleus strength / Short/long axis ratio of filament / cell count increase in comparison with the anoxia group / light flux / Cell count / Transmembrane potential (mitochondrial): anoxia 16 h; for Cell count / Transmembrane potential (mitochondrial): relative to control group = 1
Procedure: neonate Wistar rats, rat age: within 24 h, male and female
cardiac muscle cells were separated and cultured by referring to the method of differential adhesion, Wistar neonate […] newborn within 24 h were used, sterilized at skin of ventrum with iodine tincture and ethanol, subjected to thoracotomy using scissors at subxiphoid median line with a deviation to left, heart was taken out after slant thoracotomy and placed in PBS precooled with ice; the heart was softly blown and beaten with 0.01M PBS to remove blood cells and other tissues, then cut into pieces with 0.5 mm^3 size, washed with 0.01M PBS repeatedly for 2-3 times; the pieces were placed in conical flask, added with 4 ml of 0.125% pancretin, 1 ml of 0.1% collagenase II (final concentrations separately being 0.1% and 0.02%), shaken in 37° C. water bath for 10 min, the supernatant was discarded; then 4 ml of 0.125% pancretin and 1 ml of 0.1% collagenase II again, shaken in 37° C. water bath for digestion for 10 min, the supernatant was sucked and transferred to a centrifuge tube, and the supernatant was added with DMEM containing 10% FBS to terminate digestion; the step of shaking and digestion in water bath was repeated for 3-4 times, until the tissue pieces were completely digested; the collected cell suspension was centrifuged under 1000 rpm for 10 min, the supernatant was removed, then a culture medium was added for resuspension; the resuspended cells were inoculated in a cell culture flask, placed in CO2 incubator at 37° C. for incubation for 1.5 h, then the culture medium was sucked out, countered under microscope, then DMEM culture medium containing 10% FBS was used to adjust cell density, inoculated in an amount of 1×10^4 to a 96-well plate, placed in 5% CO2 incubator at 37° C. for 24 h, then half medium was replaced, a culture medium containing 0.1% Brdu was supplementally added; then the medium was replaced once per 48 h, and primary cardiac muscle cells were obtained after 4 days of cultivation.
1. The separated cardiac muscle cells were inoculated to a 96-wells plate, 10^4 cells per well, and the volume of each well was 100 μl (marginal wells were filled with sterile PBS). After being cultivated in 5% CO2 and 37° C. incubator for 4 d, Formula I was separated added at different concentrations (5 μM, 10 μM, 20 μM) and treated for 30 min, then placed in a sealed 37° C. anoxia incubator (O2/CO2, 5:95) and continuously incubated for 16 h, and at the same time, anoxia control wells and the normal control wells were set and cultivated in 5% CO2, 37° C. incubator for 16 h.
2. It was 30 min before the anoxia incubation was finished, each well was supplemented with 50 μl of culture medium and 50 μl of Mitotracker/Hoechst solution, and the cells were continuously incubated at 37° C. for 30 min.
3. 100 μl of the fixing solution was preheated to 37° C. and separately added to each culture well, without sucking out culture medium, and incubation was performed under ventilation at room temperature for 10 min.
4. The solution of each well was sucked out (the plate could be struck), washed with 1× Wash Buffer (100 uL/well) once. Carefulness was kept during operation and washing procedure, and slow sucking and adding liquid to maintain cell adhesion and integrity.
5. Wash Buffer was sucked out, 1× penetrating buffer solution (100 uL/well) was added, incubated at room temperature for 15 min.
6. The penetrating buffer solution in each well was sucked out, washed once with 100 μL/well of 1× Wash Buffer.
7. The Wash Buffer in each well was sucked out (the plate could be struck), each well was added with 50 μl of Alexa Fluor 488 Phalloidin Solution, incubated at room temperature in dark for 30 min.
8. The Alexa Fluor 488 Phalloidin solution in each well was sucked out, washed with 1× Wash Buffer (100 μl/well) twice, and added with 1× Wash Buffer (100 μl/well).
9. The edge of plate was covered with a sealing membrane (for prevention of drying), and assayed with HCS Reader. […]

[2] = test system: caspase-12 and cleaved caspase-12; assay: Western blot of caspase-12 and cleaved caspase-12 in TM-induced cardiac muscle cells; type: cell-based, Wistar rats
Procedure: (12000 rpm×10 min), collected supernatant. Nitrocellulose membrane was dipped in a transferring buffer for 15-20 min in advance. Sampled in 50 μg protein/lane, subjected to 10% polyacrylamide gel SDS-PAGE electrophoretic separation, the gel was then tiled in electrotransferring clamp, in which sponge, filter paper, gel, nitrocellulose membrane, filter paper and sponge were mounted from negative electrode to positive electrode in order. Constant current 350 mA, electrotransferred for 45 min. Electrotransferring membrane to […], the nitrocellulose membrane was taken out, the membrane was washed with TBST for 2 min, sealed with 5% defatted milk powder at room temperature for 1 h, added with first antibody (1:1000) and incubated at 4° C. overnight, the membrane was washed with TBST, 3 times×5 min, then […] second antibody was added, incubated at room temperature for 1 h, washed with TBST, 3 times×5 min, soaked separately with TSM1 and TSM2 for 5 min and 10 min, developed with chromogenic substrates 6.6 μl NBT and 3.3 μl BCIP dissolved in 1 ml of TSM2, after bonds become clear, the reaction was terminated by washing with water. After the end of development, the records were stored by scanning or taking photos.

[3] = test system: apoptosis stimulation irrelevant to endocytoplasmic reticulum stress; assay: Protection against apoptosis stimulation irrelevant to endocytoplasmic reticulum stress; type: cell-based

O=C(/C=C/c1ccccc1)NC(NC(=S)Nc1cccc2cccnc12)C(Cl)(Cl)Cl (stereo not shown) [Compound of Formula I, (2E)-3-phenyl-N-[2,2,2-trichloro-1-[[(8-quinolylamino)thiomethyl]amino]ethyl]-2-acrylamide]
Filament strength (actin filament) ([1]; 5 μM): 498.03 ± 76.67
Nucleus area ([1]; 5 μM): 109.90 ± 3.97
Nucleus strength ([1]; 5 μM): 124.90 ± 2.25
Short/long axis ratio of filament ([1]; 5 μM): 0.75 ± 0.02
cell count increase in comparison with the anoxia group ([1]; 5 μM): 17.06%
light flux ([1]; 5 μM): 1201.92 ± 29.95
Cell count ([1]; 5 μM): 88.57% ± 7.64%
Transmembrane potential (mitochondrial) ([1]; 5 μM): 96.69% ± 5.06%
Filament strength (actin filament) ([1]; 10 μM): 503.64 ± 49.23
Nucleus area ([1]; 10 μM): 107.43 ± 7.77
Nucleus strength ([1]; 10 μM): 123.21 ± 2.71
Short/long axis ratio of filament ([1]; 10 μM): 0.74 ± 0.01
cell count increase in comparison with the anoxia group ([1]; 10 μM): 26.52%
light flux ([1]; 10 μM): 1166.12 ± 91.06
Cell count ([1]; 10 μM): 98.03% ± 16.24
Transmembrane potential (mitochondrial) ([1]; 10 μM): 97.19% ± 2.82^
Filament strength (actin filament) ([1]; 20 μM): 471.83 ± 69.38
Nucleus area ([1]; 20 μM): 111.90 ± 10.76
Nucleus strength ([1]; 20 μM): 121.40 ± 2.24
Short/long axis ratio of filament ([1]; 20 μM): 0.74 ± 0.02
cell count increase in comparison with the anoxia group ([1]; 20 μM): 30.22%
light flux ([1]; 20 μM): 1214.09 ± 107.59
Cell count ([1]; 20 μM): 101.73% ± 22.42%
Transmembrane potential (mitochondrial) ([1]; 20 μM): 99.40% ± 2.80%
effect on indexes of cardiac muscle cells under anoxia (nucleus area, nucleus strength, light flux, actin filament, transmembrane potential, cell count) ([1]; highly anoxia condition): significantly improve the above indexes
expression of Cleaved caspase-12 ([2]; 10, 20, 40 μM + TM 5 μg/ml): gradually decreases with the increase of the concentration
Caspase-12 expression ([2]; different concentrations for 24 h): no significant change
protection against apoptosis stimulation irrelevant to endocytoplasmic reticulum stress [3]: does not protect apoptosis stimulation irrelevant to endocytoplasmic reticulum stress
